The record followed here is US6310095A, “Inhibitors of protein isoprenyl transferases” (University of Pittsburgh, priority 1998, dated 2001).

Where a name gives a salt, the structure may show the parent alone.

In the first test the target is T1, protein farnesyltransferase (Rattus norvegicus, UniProt Q02293+Q04631).
T1 construct: Rat brain protein farnesyltransferase activity is measured; from tissue; host or cells: rat brain; purified according to Reiss et al., Cell 62:81-88 (1990), steps one through three
Nature of the test: in vitro inhibition of protein farnesyltransferase (scintillation proximity assay, biotin-K Ras B fragment). It counts as biochemical. The conditions noted are these: at 1 × 10^-5 M. A digest of the protocol:
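Rat brain enzyme, purified through three steps, in a scintillation proximity assay kit with biotin-K Ras B fragment substrate at 0.1 mM final. Value is % inhibition of farnesylation.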
One may read the inhibition as the change of the read-out against control, counted positive when it falls. `CSCC[C@H](NC(=O)c1ccc(CNc2cccc(N(C)C)c2)cc1-c1ccccc1)C(=O)O` [Example 683] had an inhibition at 10 µM of 57%. As for `CSCC[C@H](NC(=O)c1ccc(CNc2cccc(OC(F)(F)F)c2)cc1-c1ccccc1)C(=O)O` [Example 678], testing at 10 µM gave an inhibition of 73%. On the same count and under the same terms, for `CSCC[C@H](NC(=O)c1ccc(CNc2cccc(CC(=O)O)c2)cc1-c1ccccc1)C(=O)O` [Example 684] the value was 48%. Regarding `CSCC[C@H](NC(=O)c1ccc(CNc2ccc(C(C)C)cc2)cc1-c1ccccc1)C(=O)O` [Example 692], 10 µM produced 74% inhibition. In turn, `CSCC[C@H](NC(=O)c1ccc(CNc2ccc(-c3ccccc3)cc2)cc1-c1ccccc1)C(=O)O` [Example 700] returned an inhibition at 10 µM of 68%. The compound `CSCC[C@H](NC(=O)c1ccc(CNc2ccc(I)cc2)cc1-c1ccccc1)C(=O)O` [Example 688] returned an inhibition at 10 µM of 71%. Turning to `CSCC[C@H](NC(=O)c1ccc(CNCCc2cccs2)cc1-c1ccccc1)C(=O)O` [Example 369], the inhibition at 10 µM is 87%.

Still in this test, the particulars now being: at 1 × 10^-6 M.
`CSCC[C@H](NC(=O)c1ccc(CCc2ccccc2-c2ccccc2)cc1-c1ccccc1C)C(=O)[O-].[Li+]` [Example 452]: the “% inhibition of farnesyltransferase” value is on record as 96%. As for `CSCC[C@H](NC(=O)c1ccc(COC2CCN(Cc3ccccc3)CC2)cc1-c1ccccc1C)C(=O)O` [Example 807], the “% inhibition of farnesyltransferase” value was found to be 90%. Still for that read-out and setting: the value for `CSCC[C@H](NC(=O)c1ccc(/C=C/c2cccc3ccccc23)cc1-c1ccccc1C)C(=O)O` [Example 466] was 93%; that for `CSCC[C@H](NC(=O)c1ccc(OCCC23CC4CC(CC(C4)C2)C3)cc1-c1ccccc1C)C(=O)O` [Example 553] was 92%. On the same count and under the same terms, for `CSCC[C@H](NC(=O)c1ccc(S(=O)(=O)N(Cc2ccccc2)c2ccccc2)cc1-c1ccccc1C)C(=O)[O-].[Li+]` [Example 768] the value was 67%; for `CSCC[C@H](NC(=O)c1ccc(CNC(CC2CCCCC2)C(O)C(O)CC(C)C)cc1-c1ccccc1C)C(=O)O` (stereo partly drawn) [Example 529], 99%; for `CSCC[C@H](NC(=O)c1ccc(CN(C(C)C)C2(CC3CCCCC3)CCCC2)cc1-c1ccccc1C)C(=O)O` [Example 344], 95%. On the same count and under the same terms, the value for `CSCC[C@H](NC(=O)c1ccc(COCCc2ccccc2)cc1-c1ccccc1C)C(=O)[O-].[Li+]` [Example 587] was 97%; that for `CSCC[C@H](NC(=O)c1ccc(CSC2CCCCC2)cc1-c1ccccc1C)C(=O)[O-].[Li+]` [Example 550] was 96%. As to `CSCC[C@H](NC(=O)c1ccc(CN(C2CC2)C2(CC3CCCCC3)CCC2)cc1-c1ccccc1C)C(=O)O` [Example 330], the “% inhibition of farnesyltransferase” value is 98%.

Still in this test, the particulars now being: at 1 × 10^-6 M; read-out: % inhibition of farnesyltransferase.
`CSCCC(CO)NCc1ccc(C(=O)N[C@@H](CCSC)C(=O)O)c(-c2ccccc2)c1` (stereo partly drawn) [Example 633]: the inhibition at 1 µM was found to be 32%. Same read-out and setting: the value for `CCSC[C@H](CC1CCCCC1)NCc1ccc(C(=O)N[C@@H](CCSC)C(=O)O)c(-c2ccccc2C)c1` [Example 403, [4-(1-ethylthio-3-cyclohexylprop-2-ylaminomethyl)-2-(2-methylphenyl)benzoyl]methionine] was 99%.

Regarding `CSCC[C@H](NC(=O)c1ccc(CNc2ccccc2CCO)cc1-c1ccccc1)C(=O)O` [Example 671], the inhibition at 1 µM was determined as 36%.

Consider `CSCC[C@H](NC(=O)c1ccc(CN(Cc2ccccc2)c2ccccc2)cc1-c1ccccc1C)C(=O)O` [Example 406, 4-(N-benzyl-N-phenyl)-aminomethyl-2-(2-methylphenyl)benzoylmethionine], for which the inhibition at 1 µM turned out to be 95%.

As for `CSCC[C@H](NC(=O)c1ccc(NC(=O)[C@@H](N)COCc2ccccc2)cc1-c1ccccc1)C(=O)O` [Example 503, N-[4-(N-2-amino-3-benzyloxypropionyl)amino-2-phenylbenzoyl]methionine], the inhibition at 1 µM is 57%. Regarding `CSCC[C@H](NC(=O)c1ccc(CN(Cc2ccco2)C(C)C)cc1-c1ccccc1C)C(=O)O` [Example 831, N-[4-N-(furan-2-ylmethyl)-N-isopropylaminomethyl-2-(2-methylphenyl)benzoyl]methionine lithium salt], the inhibition at 1 µM was found to be 92%. Still for that read-out and setting: the value for `CSCC[C@H](NC(=O)c1ccc(CNCCC2CCCCC2)cc1-c1ccccc1C)C(=O)O` [Example 607, N-[4-(N-2-cyclohexylethylaminomethyl)-2-(2-methylphenyl)benzoyl]methionine Trifluoroacetate Salt] was 96%; that for `CSCC[C@H](NC(=O)c1ccc(CN(C(=O)c2ccccc2)C(CC2CCCCC2)CC2CCCCC2)cc1-c1ccccc1C)C(=O)O` [Example 910, N-[4-(N-benzoyl-N-(1,3-Dicyclohexylpropan-2-yl)aminomethyl)-2-(2-methylphenyl)-benzoyl]methionine] was 42%; that for `CSCC[C@H](NC(=O)c1ccc(CNc2ccc(C(O)(C(F)(F)F)C(F)(F)F)cc2)cc1-c1ccccc1)C(=O)O` [Example 693] was 53%. On the same count and under the same terms, for `CSCC[C@H](NC(=O)c1ccc(CNCCS)cc1-c1ccccc1)C(=O)O` [Example 626] the value was 61%.

For `COc1ccc(CC(=O)Nc2ccc(C(=O)N[C@@H](CCSC)C(=O)O)c(-c3ccccc3C)c2)cc1` [Example 542, N-[4-N-(4'-methoxyphenylacetyl)amino-2-(2-methylphenyl)benzoyl]methionine lithium salt], the inhibition at 1 µM amounted to 67%.

Staying with this test, now noted: at 1 × 10^-7 M.
Turning to `CSCC[C@H](NC(=O)c1ccc(COCc2ccc(-c3ccc(C(F)(F)F)cc3)o2)cc1-c1ccccc1C)C(=O)[O-].[Li+]` [Example 445], the “% inhibition of farnesyltransferase” value was found to be 94%.

Consider `CSCC[C@H](NC(=O)c1ccc(COCc2ccc(-c3ccc(C(C)=O)cc3)o2)cc1-c1ccccc1C)C(=O)[O-].[Li+]` [Example 449], for which the “% inhibition of farnesyltransferase” value was 91%. With `CSCC[C@H](NC(=O)c1ccc(COCc2ccc(-c3ccccc3C(F)(F)F)o2)cc1-c1ccccc1C)C(=O)[O-].[Li+]` [Example 438], the “% inhibition of farnesyltransferase” value is listed as 90%.

Consider `CSCC[C@H](NC(=O)c1ccc(CSc2ncnc3[nH]ncc23)cc1-c1ccccc1C)C(=O)O` [Example 746], for which the “% inhibition of farnesyltransferase” value is 84%. Still for that read-out and setting: for `CCSCC(CC1CCCCC1)N(Cc1ccc(C(=O)N[C@@H](CCSC)C(=O)O)c(-c2ccccc2C)c1)CC(C)C` (stereo partly drawn) [Example 945, N-[4-N-(3-Cyclohexyl-1-ethylthiopropan-2-yl)-N-isobutylaminomethyl-2-(2-methylphenyl)benzoyl]-methionine] the value was 80%. Regarding `CSCC[C@H](NC(=O)c1ccc(COCc2cccc(N(C)C)c2)cc1-c1ccccc1C)C(=O)O` [Example 941], the “% inhibition of farnesyltransferase” value was 90%.

Staying with this test, now noted: at 1 × 10^-7 M; read-out: % inhibition of farnesyltransferase.
As to `CSCC[C@H](NC(=O)c1ccc(NC(=O)CN)cc1-c1ccccc1)C(=O)O` [Example 748], the inhibition at 0.1 µM came to 56%.

Consider `CSCC[C@H](NC(=O)c1ccc(CN(c2ccccc2)S(=O)(=O)c2ccc(C)cc2)cc1-c1ccccc1C)C(=O)O` [Example 770, N-[4-N-(N-phenyl-N-toluenesulfonylaminomethyl)-2-(2-methylphenyl)benzoyl]methionine lithium salt], for which the inhibition at 0.1 µM was found to be 91%. Still for that read-out and setting: for `CSCC[C@H](NC(=O)c1ccc(CN[C@H](CSC(C)(C)C)CC2CCCCC2)cc1-c1ccccc1C)C(=O)O` [Example 622, N-[4-(3-cyclohexyl-1-t-butylthiopropan-2-ylaminomethyl)-2-(2-methylphenyl)benzoyl]methionine Lithium Salt] the value was 95%; for `CSCC[C@H](NC(=O)c1ccc(CN(c2ccccc2)S(=O)(=O)c2ccccc2)cc1-c1ccccc1C)C(=O)O` [Example 769, N-[4-N-(N-phenyl-N-benzenesulfonylaminomethyl)-2-(2-methylphenyl)benzoyl]methionine lithium salt], 90%.

Staying with this test, now noted: at 1 × 10^-8 M.
Consider `CSCC[C@H](NC(=O)c1ccc(COCc2oc(-c3ccc(Cl)cc3)c(Cl)c2Cl)cc1-c1ccccc1C)C(=O)[O-].[Li+]` [Example 829], for which the “% inhibition of farnesyltransferase” value turned out to be 92%. On the same count and under the same terms, for `CSCC[C@H](NC(=O)c1ccc(COC(Cc2ccccc2)c2cncs2)cc1-c1ccccc1C)C(=O)[O-].[Li+]` (stereo partly drawn) [Example 828] the value was 87%.

Still in this test, the particulars now being: at 1 × 10^-8 M; read-out: % inhibition of farnesyltransferase.
Turning to `CSCC[C@H](NC(=O)c1ccc(CN(Cc2ccccc2)c2ccc(Cl)cc2)cc1-c1ccccc1C)C(=O)O` [Example 848, N-[4-N-(N-benzyl-N-(4-chlorophenyl)aminomethyl)-2-(2-methylphenyl)benzoyl]methionine lithium salt], the inhibition at 0.01 µM was 87%. Same read-out and setting: the value for `CCCCS(=O)(=O)N(CCCc1ccccc1)Cc1ccc(C(=O)N[C@@H](CCSC)C(=O)O)c(-c2ccccc2C)c1` [Example 927, N-[4-(N-Butanesulfonyl-N-(3-phenylpropyl)aminomethyl)-2-(2-methylphenyl)benzoyl]methionine] was 74%.

Consider `CSCC[C@H](NC(=O)c1ccc(CN(Cc2ccccc2)c2cccc(Cl)c2)cc1-c1ccccc1C)C(=O)O` [Example 847, N-[4-N-(N-benzyl-N(3-chlorophenyl)aminomethyl)-2-(2-methylphenyl)benzoyl]methionine lithium salt], for which the inhibition at 0.01 µM stood at 85%.

For `CSCC[C@H](NC(=O)c1ccc(CN(Cc2ccc3c(c2)OCO3)c2cncnc2)cc1-c1ccccc1C)C(=O)O` [Example 837, lithium salt], the inhibition at 0.01 µM was determined as 91%.

Staying with this test, now noted: read-out: % inhibition of farnesyltransferase.
With `CSCC[C@H](NC(=O)c1ccc(CN(Cc2ccccc2)c2ccc(SC)cc2)cc1-c1ccccc1C)C(=O)O` [Example 852, N-[4-(N-benzyl-N-(4-methylthiophenyl)aminomethyl)-2-(2-methylphenyl)benzoyl]methionine lithium salt], the inhibition at 0.01 µM amounted to 79%.
